Assay results taken from ChEMBL document CHEMBL1201862, “PubChem BioAssay data set” (2004).
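48-hour exposure; five concentrations; linearly interpolated endpoints. GI50: concentration for 50% inhibition of growth.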 The source made the active and inactive calls. No stated cut-off is given here; in the data, active = GI50 up to about 1.1 µM and inactive = higher.

Columns and labels:
Assay in all cases: DTP human tumour cell line panel, 48 h
786-0 = tested on: 786-0
A549 = tested on: A549
ACHN = tested on: ACHN
CCRF-CEM = tested on: CCRF-CEM
COLO 205 = tested on: COLO 205
DLD-1 = tested on: DLD-1
DMS-114 = tested on: DMS-114
EKVX = tested on: EKVX
HCC 2998 = tested on: HCC 2998
HCT-15 = tested on: HCT-15
HL-60 = tested on: HL-60
HOP-18 = tested on: HOP-18
HOP-92 = tested on: HOP-92
IGROV-1 = tested on: IGROV-1
K562 = tested on: K562
KM12 = tested on: KM12
LOX IMVI = tested on: LOX IMVI
M14 = tested on: M14
M19-MEL = tested on: M19-MEL
MOLT-4 = tested on: MOLT-4
Malme-3M = tested on: Malme-3M
NCI-H226 = tested on: NCI-H226
NCI-H23 = tested on: NCI-H23
NCI-H522 = tested on: NCI-H522
OVCAR-3 = tested on: OVCAR-3
OVCAR-5 = tested on: OVCAR-5
OVCAR-8 = tested on: OVCAR-8
RPMI-8226 = tested on: RPMI-8226
RXF 393 = tested on: RXF 393
RXF 631 = tested on: RXF 631
SF-268 = tested on: SF-268
SF-295 = tested on: SF-295
SF-539 = tested on: SF-539
SK-MEL-28 = tested on: SK-MEL-28
SK-MEL-2 = tested on: SK-MEL-2
SK-OV-3 = tested on: SK-OV-3
SN12C = tested on: SN12C
SNB-19 = tested on: SNB-19
SNB-75 = tested on: SNB-75
SR = tested on: SR
SW-620 = tested on: SW-620
TK-10 = tested on: TK-10
U-251 = tested on: U-251
UACC-257 = tested on: UACC-257
UACC-62 = tested on: UACC-62
UO-31 = tested on: UO-31
XF498 = tested on: XF498
A498 = tested on: A498
CAKI-1 = tested on: CAKI-1
DMS-273 = tested on: DMS-273
HCT-116 = tested on: HCT-116
HOP-62 = tested on: HOP-62
HT-29 = tested on: HT-29
KM-20L2 = tested on: KM-20L2
OVCAR-4 = tested on: OVCAR-4
SK-MEL-5 = tested on: SK-MEL-5
SNB-78 = tested on: SNB-78
LXFL 529 = tested on: LXFL 529
NCI-H460 = tested on: NCI-H460

O=C(NC1CCCCC1)NS(=O)(=O)c1ccc2c(c1)CCC2 [GLYHEXAMIDE]
GI50 (786-0): > 100 µM (inactive)
GI50 (A549): > 100 µM (inactive)
GI50 (ACHN): > 100 µM (inactive)
GI50 (CCRF-CEM): > 100 µM (inactive)
GI50 (COLO 205): > 100 µM (inactive)
GI50 (DLD-1): > 100 µM (inactive)
GI50 (DMS-114): > 100 µM (inactive)
GI50 (EKVX): > 100 µM (inactive)
GI50 (HCC 2998): > 100 µM (inactive)
GI50 (HCT-15): > 100 µM
GI50 (HL-60): > 100 µM (inactive)
GI50 (HOP-18): > 100 µM (inactive)
GI50 (HOP-92): > 100 µM (inactive)
GI50 (IGROV-1): > 100 µM (inactive)
GI50 (K562): > 100 µM (inactive)
GI50 (KM12): > 100 µM (inactive)
GI50 (LOX IMVI): > 100 µM (inactive)
GI50 (M14): > 100 µM (inactive)
GI50 (M19-MEL): > 100 µM (inactive)
GI50 (MOLT-4): > 100 µM (inactive)
GI50 (Malme-3M): > 100 µM (inactive)
GI50 (NCI-H226): > 100 µM (inactive)
GI50 (NCI-H23): > 100 µM (inactive)
GI50 (NCI-H522): > 100 µM (inactive)
GI50 (OVCAR-3): > 100 µM (inactive)
GI50 (OVCAR-5): > 100 µM (inactive)
GI50 (OVCAR-8): > 100 µM (inactive)
GI50 (RPMI-8226): > 100 µM (inactive)
GI50 (RXF 393): > 100 µM (inactive)
GI50 (RXF 631): > 100 µM (inactive)
GI50 (SF-268): > 100 µM (inactive)
GI50 (SF-295): > 100 µM (inactive)
GI50 (SF-539): > 100 µM (inactive)
GI50 (SK-MEL-28): > 100 µM (inactive)
GI50 (SK-MEL-2): > 100 µM (inactive)
GI50 (SK-OV-3): > 100 µM (inactive)
GI50 (SN12C): > 100 µM (inactive)
GI50 (SNB-19): > 100 µM (inactive)
GI50 (SNB-75): > 100 µM (inactive)
GI50 (SR): > 100 µM (inactive)
GI50 (SW-620): > 100 µM (inactive)
GI50 (TK-10): > 100 µM (inactive)
GI50 (U-251): > 100 µM (inactive)
GI50 (UACC-257): > 100 µM (inactive)
GI50 (UACC-62): > 100 µM (inactive)
GI50 (UO-31): > 100 µM (inactive)
GI50 (XF498): > 100 µM (inactive)

COc1c(Br)cc(CC(N)=O)c(O)c1Br
GI50 (A498): > 100 µM (inactive)
GI50 (A549): > 100 µM (inactive)
GI50 (ACHN): > 100 µM (inactive)
GI50 (CAKI-1): > 100 µM (inactive)
GI50 (CCRF-CEM): > 100 µM (inactive)
GI50 (COLO 205): > 100 µM (inactive)
GI50 (DLD-1): > 100 µM (inactive)
GI50 (DMS-114): > 100 µM (inactive)
GI50 (DMS-273): > 100 µM (inactive)
GI50 (EKVX): > 100 µM (inactive)
GI50 (HCC 2998): > 100 µM (inactive)
GI50 (HCT-116): > 100 µM (inactive)
GI50 (HL-60): > 100 µM (inactive)
GI50 (HOP-18): > 100 µM (inactive)
GI50 (HOP-62): > 100 µM (inactive)
GI50 (HOP-92): > 100 µM (inactive)
GI50 (HT-29): > 100 µM (inactive)
GI50 (IGROV-1): > 100 µM (inactive)
GI50 (K562): > 100 µM (inactive)
GI50 (KM-20L2): > 100 µM (inactive)
GI50 (KM12): > 100 µM (inactive)
GI50 (LOX IMVI): > 100 µM (inactive)
GI50 (M19-MEL): > 100 µM (inactive)
GI50 (MOLT-4): > 100 µM (inactive)
GI50 (Malme-3M): > 100 µM (inactive)
GI50 (NCI-H226): > 100 µM (inactive)
GI50 (NCI-H23): > 100 µM (inactive)
GI50 (NCI-H522): > 100 µM (inactive)
GI50 (OVCAR-3): > 100 µM (inactive)
GI50 (OVCAR-4): > 100 µM (inactive)
GI50 (OVCAR-5): > 100 µM (inactive)
GI50 (OVCAR-8): > 100 µM (inactive)
GI50 (RXF 393): > 100 µM (inactive)
GI50 (RXF 631): > 100 µM (inactive)
GI50 (SF-268): > 100 µM (inactive)
GI50 (SF-295): > 100 µM (inactive)
GI50 (SF-539): > 100 µM (inactive)
GI50 (SK-MEL-28): > 100 µM (inactive)
GI50 (SK-MEL-2): > 100 µM (inactive)
GI50 (SK-MEL-5): > 100 µM (inactive)
GI50 (SK-OV-3): > 100 µM (inactive)
GI50 (SN12C): > 100 µM (inactive)
GI50 (SNB-19): > 100 µM (inactive)
GI50 (SNB-75): > 100 µM (inactive)
GI50 (SNB-78): > 100 µM (inactive)
GI50 (SR): > 100 µM (inactive)
GI50 (SW-620): > 100 µM (inactive)
GI50 (TK-10): > 100 µM (inactive)
GI50 (U-251): > 100 µM (inactive)
GI50 (UACC-257): > 100 µM (inactive)
GI50 (UACC-62): > 100 µM (inactive)
GI50 (UO-31): > 100 µM (inactive)
GI50 (XF498): > 100 µM (inactive)

CC(=O)N1CCc2[nH]c3ccccc3c2CC1
GI50 (786-0): > 100 µM (inactive)
GI50 (A498): > 100 µM (inactive)
GI50 (A549): > 100 µM (inactive)
GI50 (ACHN): > 100 µM (inactive)
GI50 (CAKI-1): > 100 µM (inactive)
GI50 (CCRF-CEM): > 100 µM (inactive)
GI50 (COLO 205): > 100 µM (inactive)
GI50 (DLD-1): > 100 µM (inactive)
GI50 (DMS-114): > 100 µM (inactive)
GI50 (DMS-273): > 100 µM (inactive)
GI50 (EKVX): > 100 µM (inactive)
GI50 (HCC 2998): > 100 µM (inactive)
GI50 (HCT-116): > 100 µM (inactive)
GI50 (HCT-15): > 100 µM
GI50 (HL-60): > 100 µM (inactive)
GI50 (HOP-18): 86.9 µM (inactive)
GI50 (HOP-62): > 100 µM (inactive)
GI50 (HOP-92): 31.5 µM (inactive)
GI50 (HT-29): > 100 µM (inactive)
GI50 (IGROV-1): > 100 µM (inactive)
GI50 (K562): > 100 µM (inactive)
GI50 (KM-20L2): > 100 µM (inactive)
GI50 (KM12): > 100 µM (inactive)
GI50 (LOX IMVI): > 100 µM (inactive)
GI50 (LXFL 529): > 100 µM (inactive)
GI50 (M14): > 100 µM (inactive)
GI50 (M19-MEL): > 100 µM (inactive)
GI50 (MOLT-4): > 100 µM (inactive)
GI50 (Malme-3M): > 100 µM (inactive)
GI50 (NCI-H23): > 100 µM (inactive)
GI50 (NCI-H460): > 100 µM (inactive)
GI50 (OVCAR-3): > 100 µM (inactive)
GI50 (OVCAR-4): > 100 µM (inactive)
GI50 (OVCAR-5): > 100 µM (inactive)
GI50 (OVCAR-8): > 100 µM (inactive)
GI50 (RPMI-8226): > 100 µM (inactive)
GI50 (RXF 631): > 100 µM (inactive)
GI50 (SF-295): > 100 µM (inactive)
GI50 (SF-539): > 100 µM (inactive)
GI50 (SK-MEL-28): > 100 µM (inactive)
GI50 (SK-MEL-2): > 100 µM (inactive)
GI50 (SK-MEL-5): > 100 µM (inactive)
GI50 (SK-OV-3): > 100 µM (inactive)
GI50 (SNB-75): 19.9 µM (inactive)
GI50 (SNB-78): > 100 µM (inactive)
GI50 (SW-620): > 100 µM (inactive)
GI50 (TK-10): > 100 µM (inactive)
GI50 (U-251): > 100 µM (inactive)
GI50 (UACC-257): > 100 µM (inactive)
GI50 (UACC-62): 86.1 µM (inactive)
GI50 (XF498): > 100 µM (inactive)
